Assay results taken from ChEMBL document CHEMBL1144513, “Synthesis and SAR study of novel 7-(pyridinium-3-yl)-carbonyl imidazo[5,1-b]thiazol-2-yl carbapenems” (2007).
In brackets after ≈: the same amount, converted by molar mass.

What was measured:
Assay type in all cases: functional
[1] = test system: Staphylococcus aureus; assay: Antibacterial activity against carbapenem and methicillin-resistant Staphylococcus aureus M126HR by agar dilution method
[2] = test system: Haemophilus influenzae; assay: Antibacterial activity against beta-lactamase-negative ampicillin-resistant Haemophilus influenzae 870 by agar dilution method
[3] = test system: Moraxella catarrhalis; assay: Antibacterial activity against Moraxella catarrhalis W-0500 by agar dilution method
[4] = test system: Streptococcus pneumoniae; assay: Antibacterial activity against penicillin-resistant Streptococcus pneumoniae KK133 by agar dilution method
[5] = test system: Staphylococcus aureus; assay: Antibacterial activity against Staphylococcus aureus 209P JC1 by agar dilution method
[6] = test system: Klebsiella pneumoniae; assay: Antibacterial activity against Klebsiella pneumoniae GN69 by agar dilution method
[7] = test system: Escherichia coli; assay: Antibacterial activity against Escherichia coli NIHJ JC2 by agar dilution method
[8] = test system: Staphylococcus aureus; assay: Antibacterial activity against methicillin-resistant Staphylococcus aureus M126 by agar dilution method

Row | SMILES | MIC [1] [µg/mL] | MIC [2] [µg/mL] | MIC [3] [µg/mL] | MIC [4] [µg/mL] | MIC [5] [µg/mL] | MIC [6] [µg/mL] | MIC [7] [µg/mL] | MIC [8] [µg/mL]
1 | C[C@@H](O)[C@H]1C(=O)N2C(C(=O)[O-])=C(c3cn4cnc(C(=O)c5ccc[n+](CCS(C)(=O)=O)c5)c4s3)[C@H](C)[C@H]12 | 4 (≈ 7.34 µM) | 0.063 (≈ 0.116 µM) | 0.016 (≈ 0.0294 µM) | 0.031 (≈ 0.0569 µM) | ≤ 0.008 | 0.5 (≈ 0.918 µM) | 0.5 (≈ 0.918 µM) | 1 (≈ 1.84 µM)
2 | C[C@@H](O)[C@H]1C(=O)N2C(C(=O)[O-])=C(c3cn4c(Cl)nc(C(=O)c5ccc[n+](CC(N)=O)c5)c4s3)[C@H](C)[C@H]12 | 2 (≈ 3.77 µM) | 0.063 (≈ 0.119 µM) | 0.016 (≈ 0.0302 µM) | 0.031 (≈ 0.0585 µM) | 0.008 (≈ 0.0151 µM) | 2 (≈ 3.77 µM) | 1 (≈ 1.89 µM) | 0.5 (≈ 0.943 µM)
3 | C[C@@H](O)[C@H]1C(=O)N2C(C(=O)O)=C(c3cn4cnc(C(=O)c5cccnc5)c4s3)[C@H](C)[C@H]12 | 4 (≈ 9.12 µM) | 0.031 (≈ 0.0707 µM) | 0.016 (≈ 0.0365 µM) | 0.031 (≈ 0.0707 µM) | ≤ 0.008 | 2 (≈ 4.56 µM) | 1 (≈ 2.28 µM) | 1 (≈ 2.28 µM)
4 | CC(=O)C[n+]1cccc(C(=O)c2ncn3cc(C4=C(C(=O)[O-])N5C(=O)[C@H]([C@@H](C)O)[C@H]5[C@H]4C)sc23)c1 | 4 (≈ 8.09 µM) | 0.063 (≈ 0.127 µM) | 0.031 (≈ 0.0627 µM) | 0.063 (≈ 0.127 µM) | 0.016 (≈ 0.0324 µM) | 0.25 (≈ 0.506 µM) | 0.125 (≈ 0.253 µM) | 1 (≈ 2.02 µM)
5 | CCOC(=O)C[n+]1cccc(C(=O)c2ncn3cc(C4=C(C(=O)[O-])N5C(=O)[C@H]([C@@H](C)O)[C@H]5[C@H]4C)sc23)c1 | 8 (≈ 15.3 µM) | 0.063 (≈ 0.12 µM) | 0.031 (≈ 0.0591 µM) | 0.063 (≈ 0.12 µM) | 0.016 (≈ 0.0305 µM) | 0.063 (≈ 0.12 µM) | 0.031 (≈ 0.0591 µM) | 2 (≈ 3.81 µM)
6 | COCc1nc(C(=O)c2ccc[n+](CC(N)=O)c2)c2sc(C3=C(C(=O)[O-])N4C(=O)[C@H]([C@@H](C)O)[C@H]4[C@H]3C)cn12 | 4 (≈ 7.41 µM) | 0.063 (≈ 0.117 µM) | 0.031 (≈ 0.0575 µM) | 0.063 (≈ 0.117 µM) | 0.031 (≈ 0.0575 µM) | 4 (≈ 7.41 µM) | 8 (≈ 14.8 µM) | 2 (≈ 3.71 µM)
7 | C[C@@H](O)[C@H]1C(=O)N2C(C(=O)O)=C(c3cn4cnc(C(=O)[C@@H]5C[C@@H](O)CN5)c4s3)[C@H](C)[C@H]12 | 4 (≈ 8.96 µM) | 0.125 (≈ 0.28 µM) | 0.031 (≈ 0.0694 µM) | 0.063 (≈ 0.141 µM) | 0.016 (≈ 0.0358 µM) | 0.125 (≈ 0.28 µM) | 0.063 (≈ 0.141 µM) | 1 (≈ 2.24 µM)
8 | C[C@@H](O)[C@H]1C(=O)N2C(C(=O)[O-])=C(c3cn4c(N5CCOCC5)nc(C(=O)c5ccc[n+](CC(N)=O)c5)c4s3)[C@H](C)[C@H]12 | 8 (≈ 13.8 µM) | 0.125 (≈ 0.215 µM) | 0.063 (≈ 0.109 µM) | 0.063 (≈ 0.109 µM) | 0.031 (≈ 0.0534 µM) | 16 (≈ 27.6 µM) | 16 (≈ 27.6 µM) | 2 (≈ 3.44 µM)
9 | C[C@@H](O)[C@H]1C(=O)N2C(C(=O)O)=C(c3cn4cnc(C(=O)c5cccs5)c4s3)[C@H](C)[C@H]12 | 4 (≈ 9.02 µM) | 0.125 (≈ 0.282 µM) | 0.016 (≈ 0.0361 µM) | 0.125 (≈ 0.282 µM) | ≤ 0.008 | 4 (≈ 9.02 µM) | 2 (≈ 4.51 µM) | 0.031 (≈ 0.0699 µM)
10 | C[C@@H](O)[C@H]1C(=O)N2C(C(=O)[O-])=C(c3cn4cnc(C(=O)c5ccc[n+](CCN(C)C)c5)c4s3)[C@H](C)[C@H]12 | 4 (≈ 7.85 µM) | 0.063 (≈ 0.124 µM) | 0.031 (≈ 0.0608 µM) | 0.031 (≈ 0.0608 µM) | ≤ 0.008 | 0.25 (≈ 0.491 µM) | 0.125 (≈ 0.245 µM) | 1 (≈ 1.96 µM)
11 | C[C@@H](O)[C@H]1C(=O)N2C(C(=O)[O-])=C(c3cn4c(C5CC5)nc(C(=O)c5ccc[n+](CC(N)=O)c5)c4s3)[C@H](C)[C@H]12 | 2 (≈ 3.73 µM) | 0.031 (≈ 0.0579 µM) | 0.016 (≈ 0.0299 µM) | 0.031 (≈ 0.0579 µM) | 0.016 (≈ 0.0299 µM) | 4 (≈ 7.47 µM) | 4 (≈ 7.47 µM) | 0.5 (≈ 0.934 µM)
12 | C[C@@H](O)[C@H]1C(=O)N2C(C(=O)O)=C(c3cn4cnc(C(=O)C5CCNCC5)c4s3)[C@H](C)[C@H]12 | 4 (≈ 9 µM) | 0.063 (≈ 0.142 µM) | 0.031 (≈ 0.0697 µM) | 0.063 (≈ 0.142 µM) | 0.008 (≈ 0.018 µM) | 0.125 (≈ 0.281 µM) | 0.063 (≈ 0.142 µM) | 1 (≈ 2.25 µM)
13 | C[C@@H](O)[C@H]1C(=O)N2C(C(=O)O)=C(c3cn4cnc(C(=O)c5cncs5)c4s3)[C@H](C)[C@H]12 | 4 (≈ 9 µM) | 0.063 (≈ 0.142 µM) | 0.016 (≈ 0.036 µM) | 0.031 (≈ 0.0697 µM) | ≤ 0.008 | 2 (≈ 4.5 µM) | 1 (≈ 2.25 µM) | 0.031 (≈ 0.0697 µM)
14 | C[C@@H](O)[C@H]1C(=O)N2C(C(=O)[O-])=C(c3cn4cnc(C(=O)c5ccc[n+](CC(=O)C(F)(F)F)c5)c4s3)[C@H](C)[C@H]12 | 4 (≈ 7.29 µM) | 0.063 (≈ 0.115 µM) | 0.031 (≈ 0.0565 µM) | 0.063 (≈ 0.115 µM) | 0.016 (≈ 0.0292 µM) | 0.25 (≈ 0.456 µM) | 0.125 (≈ 0.228 µM) | 1 (≈ 1.82 µM)
15 | C[C@@H](O)[C@H]1C(=O)N2C(C(=O)O)=C(c3cn4cnc(C(=O)c5ccncc5)c4s3)[C@H](C)[C@H]12 | 4 (≈ 9.12 µM) | 0.031 (≈ 0.0707 µM) | 0.031 (≈ 0.0707 µM) | 0.031 (≈ 0.0707 µM) | ≤ 0.008 | 2 (≈ 4.56 µM) | 2 (≈ 4.56 µM) | 0.063 (≈ 0.144 µM)
16 | CSc1nc(C(=O)c2ccc[n+](CC(N)=O)c2)c2sc(C3=C(C(=O)[O-])N4C(=O)[C@H]([C@@H](C)O)[C@H]4[C@H]3C)cn12 | 1 (≈ 1.85 µM) | 0.031 (≈ 0.0572 µM) | 0.016 (≈ 0.0295 µM) | 0.016 (≈ 0.0295 µM) | 0.008 (≈ 0.0148 µM) | 4 (≈ 7.39 µM) | 4 (≈ 7.39 µM) | 0.5 (≈ 0.923 µM)
17 | CCc1nc(C(=O)c2ccc[n+](CC(N)=O)c2)c2sc(C3=C(C(=O)[O-])N4C(=O)[C@H]([C@@H](C)O)[C@H]4[C@H]3C)cn12 | 4 (≈ 7.64 µM) | 0.063 (≈ 0.12 µM) | 0.031 (≈ 0.0592 µM) | 0.031 (≈ 0.0592 µM) | 0.016 (≈ 0.0306 µM) | 4 (≈ 7.64 µM) | 2 (≈ 3.82 µM) | 1 (≈ 1.91 µM)
18 | C[C@@H](O)[C@H]1C(=O)N2C(C(=O)O)=C(c3cn4cnc(C(=O)[C@@H]5CCCN5)c4s3)[C@H](C)[C@H]12 | 4 (≈ 9.29 µM) | 0.125 (≈ 0.29 µM) | 0.031 (≈ 0.072 µM) | 0.063 (≈ 0.146 µM) | ≤ 0.008 | 0.125 (≈ 0.29 µM) | 0.125 (≈ 0.29 µM) | 1 (≈ 2.32 µM)
19 | Cc1nc(C(=O)c2ccc[n+](CC(N)=O)c2)c2sc(C3=C(C(=O)[O-])N4C(=O)[C@H]([C@@H](C)O)[C@H]4[C@H]3C)cn12 | 4 (≈ 7.85 µM) | 0.063 (≈ 0.124 µM) | 0.008 (≈ 0.0157 µM) | 0.031 (≈ 0.0608 µM) | 0.016 (≈ 0.0314 µM) | 0.5 (≈ 0.981 µM) | 0.25 (≈ 0.491 µM) | 1 (≈ 1.96 µM)
20 | C[C@@H](O)[C@H]1C(=O)N2C(C(=O)O)=C(c3cn4cnc(C(=O)C5CCCCN5)c4s3)[C@H](C)[C@H]12 (stereo not given in full) | 4 (≈ 9 µM) | 0.25 (≈ 0.562 µM) | 0.063 (≈ 0.142 µM) | 0.125 (≈ 0.281 µM) | 0.016 (≈ 0.036 µM) | 0.25 (≈ 0.562 µM) | 0.125 (≈ 0.281 µM) | 1 (≈ 2.25 µM)
21 | CN[C@H](CC(C)C)C(=O)N[C@H]1C(=O)N[C@@H](CC(N)=O)C(=O)N[C@H]2C(=O)N[C@H]3C(=O)N[C@H](C(=O)N[C@H](C(=O)O)c4cc(O)cc(O)c4-c4cc3ccc4O)[C@H](O)c3ccc(c(Cl)c3)Oc3cc2cc(c3O[C@@H]2O[C@H](CO)[C@@H](O)[C@H](O)[C@H]2O[C@H]2C[C@](C)(N)[C@H](O)[C@H](C)O2)Oc2ccc(cc2Cl)[C@H]1O [VANCOMYCIN] | – | > 128 | 64 (≈ 44.2 µM) | 0.5 (≈ 0.345 µM) | – | > 128 | > 128 | –
